This note sets out measurements from patent publication US12446577B2 (priority 2018, dated 2025).

Series [1] has as its system Phytophthora infestans strain 1813E11. It counts as in vivo. Conditions: 100 ppm.
The next series concerns lettuce plants. The series can be described thus: Phytotoxicity on lettuce plants after spraying. It counts as in vivo. Conditions: 2.5% pelargonic acid, sprayed until run-off, n = 6, scale 0 to 100%. As for the experimental part: A neutralization reaction was made with pelargonic acid (>97%) and choline hydroxide (45%) based on the titration curve (FIG. 1). Based on the titration curve, a stock solution of choline pelargonate (29.1% PLA (>97%) and 40.4% Choline hydroxide (45%)) was made by mixing 14.55 mL pelargonic acid with 15.25 mL distilled water and afterwards the addition of 20.2 mL choline hydroxide. The choline pelargonate stock solution was diluted in distilled water to obtain a diluted choline pelargonate composition comprising about 2.5% pelargonic acid. The total concentration of choline pelargonate in the water spray solution was 37.08 g a.i./L (a.i.=active ingredient).
The next step was to assess the phytotoxicity of a composition comprising choline pelargonate on lettuce plants. As a control, plants were treated with water. The plants were also treated with a diluted pelargonic acid composition, including a diluted pelargonic acid solution based on the commercial product Beloukha (Belchim Crop Protection).
Lettuce plants were sprayed with a small hand sprayer until run-off with the respective compositions and incubated at 20° C. Each composition was tested with a setup consisting out of six plants. A visual assessment was made on lettuce plants after spraying. The effect of phytotoxicity (necrosis or discolouration) was scored by a scale from 0 to 100%, with 0% no phytotoxicity and 100% fully phytotoxicity on plants.

The test system of a further series is Rhizoctonia solani. The series can be described thus: Mycelium growth inhibition on PDA (Example 7). It counts as cell-based. To be noted: 3 days at 25° C; for Average mycelium diameter: n = 4. As for the experimental part:
(§1) Strains used for this trial were kept and refreshed on Potato Dextrose Agar (PDA) at 25° C.
(§2) To begin, a quantity of test product was directly added in a certain volume of PDA (about 20 mL/petri dish) (Table 11). Plugs of agar (diameter 10 mm) from one week-old cultures were placed at the centre of the PDA plates. Each object was performed in 4 repetitions. The petri dishes were then incubated at 25° C. in the dark. After 3 and 6 days of incubation, the diameter of the colonies was measured in 2 perpendicular directions. The percentage of inhibition was calculated for each product/concentration compare to the untreated.

In another series the test system is Sclerotinia sclerotiorum. The series can be described thus: Mycelium growth inhibition on PDA (Example 7). It counts as cell-based. To be noted: 3 days at 25° C; for Average mycelium diameter: n = 4. As for the experimental part:
as §1, §2

Another series relates to Botrytis cinerea. The series is described as follows: Mycelium growth inhibition on PDA (Example 7). It counts as cell-based. To be noted: 3 days at 25° C; for Average mycelium diameter: n = 4. As for the experimental part:
as §1, §2

Another series concerns Pythium ultimum. The series is described as follows: Mycelium growth inhibition on PDA (Example 7). Format: cell-based. Conditions: 3 days at 25° C; for Average mycelium diameter: n = 4. As for the experimental part:
as §1, §2

A further series has as its system Sclerotinia minor. The series is described as follows: Mycelium growth inhibition on PDA (Example 7). Format: cell-based. To be noted: 3 days at 25° C; for Average mycelium diameter: n = 4. As for the experimental part: as §1, §2
The subject of the next series is Plasmopara viticola. The series is described as follows: Plasmopara viticola grapevine leaf disc test. It counts as in vivo. Conditions: copper hydroxide 2 g/L, preventive spray; 7 days after the artificial inoculation. As for the experimental part:
A stock solution of choline pelargonate (29.1% PLA and 40.4% Choline hydroxide, pH 8.82) was made by mixing 14.55 mL PLA with 15.25 mL distilled water and afterwards the addition of 20.2 mL of Choline hydroxide. The choline pelargonate stock solution (42.04%) was diluted in order to create a solution with a final concentration of choline pelargonate equal to 1 mL/L and 10 mL/L. The two choline pelargonate solutions, water as negative control and copper hydroxide (2 g/L) as positive control were used for this test. For each object 4 Petri plates were prepared and each plate contains 5 grapevine leaf discs (see Table 8 below).
Leaf discs preparation: leaf discs (diameter 19 mm) were prepared from grapevine cuttings (variety Pinot Nero Entav 115) using the young leaves. 5 leaf discs were placed in each Petri Plate on autoclaved paper (4 layers), the paper was previously wetted by adding 8.5 mL of sterile water in each plate. The leaf discs were placed on the paper with the abaxial side upward.
Test products application and pathogen inoculation: leaf discs were treated with the test products at 11.30 A.M (i.e. a preventive application) and the leaves were allowed to dry. The products were sprayed with a small hand sprayer; 5 sprays were applied on each plate. The same day at 16.30 a suspension of P. viticola spores at final concentration of 2*10^5 spore/mL was applied (5 hours after test product application) on the leaf discs. The inoculated plates were incubated overnight in the dark at 25° C. The following day, the leaf discs were dried under the laminar flow and then placed back at 25° C. The disease assessment was done 7 days after the artificial inoculation.

For the compound `O=[N+]([O-])c1cc(C(F)(F)F)c(Cl)c([N+](=O)[O-])c1Nc1ncc(C(F)(F)F)cc1Cl` [Fluazinam], the “Disease severity (%) on potato leaf discs, Mean” value in series [1] (mean of 5 leaf discs, six days after inoculation) is on record as 0%. Moreover, in series [1] (potato leaf discs), the efficacy is reported as 100%. Further, the “Disease severity (%) on potato leaf discs” value in series [1] (single leaf discs a-e, six days after inoculation) came to 0%.
With `CCCCCCCCC(=O)O` [Pelargonic acid, pelargonic acid, reference compound], the “Phytotoxicity (%) evaluation on lettuce plants” value turned out to be 0.00% in the series on lettuce plants (0 DAA), 60.00% in the series on lettuce plants (1 DAA), 60.83% in the series with lettuce plants (2 DAA) and 70.00% in the series with lettuce plants (7 DAA).
Take `CCCCCCCCCC(=O)[O-].C[N+](C)(C)CCO` [TMAD, choline decanoate]: the “% efficacy compared to control (Abbott)” value turned out to be 48% in the series on Rhizoctonia solani (0.042% a.i. in PDA); 99% with Rhizoctonia solani (0.42% a.i. in PDA); 97% in the series on Sclerotinia sclerotiorum (0.042% a.i. in PDA); 100% in the series on Sclerotinia sclerotiorum (0.42% a.i. in PDA); 84% in the series with Botrytis cinerea (0.042% a.i. in PDA); 95% in the series on Botrytis cinerea (0.42% a.i. in PDA). For the same compound, the “% efficacy compared to control (Abbott)” value in the series on Pythium ultimum (0.042% a.i. in PDA) is given as 100%; with Pythium ultimum (0.42% a.i. in PDA), 100%; in the series on Sclerotinia minor (0.042% a.i. in PDA) it was 98%; in the series with Sclerotinia minor (0.42% a.i. in PDA), 99%. Besides, the Average mycelium diameter worked out at 27.3 ± 6.9 mm with Rhizoctonia solani (0.042% a.i. in PDA); 0.4 ± 0.8 mm in the series on Rhizoctonia solani (0.42% a.i. in PDA); 2.1 ± 1.7 mm in the series on Sclerotinia sclerotiorum (0.042% a.i. in PDA); 0.0 ± 0.0 mm in the series with Sclerotinia sclerotiorum (0.42% a.i. in PDA); 7.0 ± 10.7 mm in the series on Botrytis cinerea (0.042% a.i. in PDA); 2.0 ± 4.0 mm in the series with Botrytis cinerea (0.42% a.i. in PDA). In addition, the Average mycelium diameter with Pythium ultimum (0.042% a.i. in PDA) came out at 0.0 ± 0.0 mm; in the series with Pythium ultimum (0.42% a.i. in PDA), 0.0 ± 0.0 mm; with Sclerotinia minor (0.042% a.i. in PDA), 1.5 ± 1.8 mm; in the series with Sclerotinia minor (0.42% a.i. in PDA), 0.5 ± 0.6 mm.
As for `CCCCCCCC(=O)[O-].C[N+](C)(C)CCO` [TMAO, choline octanoate], the “% efficacy compared to control (Abbott)” value with Rhizoctonia solani (0.042% a.i. in PDA) is 64%; with Rhizoctonia solani (0.42% a.i. in PDA), 100%; in the series on Sclerotinia sclerotiorum (0.042% a.i. in PDA), 98%; in the series on Sclerotinia sclerotiorum (0.42% a.i. in PDA), 100%; in the series on Botrytis cinerea (0.042% a.i. in PDA), 72%; with Botrytis cinerea (0.42% a.i. in PDA), 100%. Besides, the “% efficacy compared to control (Abbott)” value in the series on Pythium ultimum (0.042% a.i. in PDA) is reported as 100%; in the series with Pythium ultimum (0.42% a.i. in PDA) it was 100%; in the series on Sclerotinia minor (0.042% a.i. in PDA) it was 96%; in the series on Sclerotinia minor (0.42% a.i. in PDA) it was 100%. Besides, the Average mycelium diameter in the series with Rhizoctonia solani (0.042% a.i. in PDA) turned out to be 18.9 ± 3.8 mm; with Rhizoctonia solani (0.42% a.i. in PDA), 0.0 ± 0.0 mm; with Sclerotinia sclerotiorum (0.042% a.i. in PDA) it was 1.3 ± 0.3 mm; in the series with Sclerotinia sclerotiorum (0.42% a.i. in PDA), 0.0 ± 0.0 mm; in the series with Botrytis cinerea (0.042% a.i. in PDA), 12.1 ± 11.0 mm; with Botrytis cinerea (0.42% a.i. in PDA), 0.0 ± 0.0 mm. Besides, the Average mycelium diameter with Pythium ultimum (0.042% a.i. in PDA) worked out at 0.0 ± 0.0 mm; in the series on Pythium ultimum (0.42% a.i. in PDA), 0.0 ± 0.0 mm; in the series on Sclerotinia minor (0.042% a.i. in PDA), 2.5 ± 2.9 mm; in the series on Sclerotinia minor (0.42% a.i. in PDA), 0.0 ± 0.0 mm.
Turning to `[Cu+2].[OH-].[OH-]` [copper, copper hydroxide, reference compound], the “disease symptoms on the leaf discs” value in the series on Plasmopara viticola is recorded as “did not show any disease symptoms”.
